Assay: Solubility comparison in toluene at room temperature
Type: physicochemical
Conditions: about 50 mg of solid dissolved

| Compound | solubility |
| --- | --- |
| Cc1cc2ccccc2[c-]1[Si](C)(C)[c-]1c(C)cc2ccccc21.[Cl-].[Cl-].[Zr+4] (stereo not shown) [dimethylsilanediylbis(2-methylindenyl)zirconium dichloride] | about 2.1 mmol/l |
| CC1=Cc2c(ccc3ccccc23)[C]12[Si](C)(C)[C]1(C(C)=Cc3c1ccc1ccccc31)[Zr]2([Cl])[O]c1ccc(C(C)(C)C)cc1C(C)(C)C (stereo not shown) [compound 1, Dimethylsilanediylbis(2-methyl-4,5-benzoindenyl)zirconium monochloride mono(2,4-di-tert-butylphenoxide)] | > 13 mM |
| Dimethylsilanediylbis(2-methylindenyl)zirconium monochloride mono(2,4-di-tert-butylphenoxide) [compound 2] | > 15 mM |
| CC1=Cc2c(ccc3ccccc23)[C]12[Si](C)(C)[C]1(C(C)=Cc3c1ccc1ccccc31)[Zr]2([Cl])[Cl] (stereo not shown) [dimethylsilanediylbis(2-methyl-4,5-benzoindenyl)zirconium dichloride] | about 0.36 mmol/l |

Reference: patent publication US7053160B1, “Metallocene monohalogenides” (Basell Polyolefine GmbH, priority 1998, dated 2006)
